Results published in patent publication US10030016B2 (Sunesis Pharmaceuticals, Inc., priority 2009, dated 2018).
Where a name gives a salt, the structure may show the parent alone. Read-outs that look alike come from different tables or passages of the source.

What was measured:
PDK1 = PDK1 (Homo sapiens (Human), UniProt O15530); test: PDK1 kinase assay (coupled PDK1/AKT/FAM-crosstide assay, IMAP fluorescence polarization); assay type: biochemical
How it was run: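 Coupled cascade: 0.75 nM PDK1 (51-359) → 10 nM AKT2 (140-467-PIFtide) → 100 nM FAM-crosstide. ATP 40 μM, 25° C, 30 min. IMAP FP (ex 485/em 530), 2 h binding. ΔmP vs conc, 4-param fit.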

[1] = tested on: phospho-akt (Thr308) in PC-3 cells; test: Inhibition of phospho-akt (Thr308) in PC-3 cells, MSD phospho-akt 308 ELISA kit; assay type: cell-based; details: Homo sapiens, 2 hours, no serum, read-out: EC50
How it was run: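 Read-out is MSD electrochemiluminescence of Akt phosphorylated at Thr308 in lysates of PC-3 cells treated 2 h with compound in serum-free medium. Wortmannin at 5 μM defined the low control and DMSO the high control.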

[2] = inhibition of phospo-PDK1 in vitro
[3] = inhibition of P308 Akt in PC-3 cells, MSD
[4] = inhibition of P308 Akt in PC-3 cells using MSD
[5] = PC-3, 2 h, inhibition of P308 Akt in PC-3 cells, MSD

Chain of PDK1 (O15530 51-359): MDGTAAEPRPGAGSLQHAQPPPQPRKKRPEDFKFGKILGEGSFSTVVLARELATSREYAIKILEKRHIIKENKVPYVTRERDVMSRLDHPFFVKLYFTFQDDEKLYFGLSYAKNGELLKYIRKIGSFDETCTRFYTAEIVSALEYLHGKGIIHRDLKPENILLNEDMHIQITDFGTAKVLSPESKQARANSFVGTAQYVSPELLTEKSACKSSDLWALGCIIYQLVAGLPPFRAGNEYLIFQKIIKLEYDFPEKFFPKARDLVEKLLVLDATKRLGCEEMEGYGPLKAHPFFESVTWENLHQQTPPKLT

IC50 (PDK1; [2]) | EC50 [1, 3] | IC50 (PDK1; inhibition of PDK1 in vitro) | EC50 [1, 4] | EC50 [1, 5] | Structure (SMILES)
> 5000 nM | 1000 to 10000 nM |  |  |  | CC(C)Oc1cc(CNc2ncccc2C(=O)N(C)c2ccc(F)cc2)cc(-c2c[nH]c3ncc(C(=O)NC4CC4)cc23)c1 [Example 4.1.9, N-cyclopropyl-3-{3-[({3-[(4-fluorophenyl)(methyl)carbamoyl]pyridin-2-yl}amino)methyl]-5-(propan-2-yloxy)phenyl}-1H-pyrrolo[2,3-b] pyridine-5-carboxamide]
< 100 nM | 1000 to 10000 nM |  |  |  | Nc1ncnc2ccc(-c3ccc(CNc4nccnc4C(=O)NCc4ccc(F)c(F)c4)s3)cc12 [Ex. 10.1]
100 to 1000 nM | < 1000 nM |  |  |  | Cc1nc2cnc3ccc(-c4ccc(CNc5ncccc5C(=O)N[C@@H](C)c5ccc(F)cc5)s4)cc3c2n1C [Example 2.19, (S)-2-(((5-(1,2-dimethyl-1H-imidazo[4,5-c]quinolin-8-yl)thiophen-2-yl)methyl)amino) N-(1-(4-fluorophenyl)ethyl) nicotinamide]
 |  | < 100 nM | 1000 to 10000 nM |  | Nc1cnc(-c2ccc(CNc3nccc4ncn(Cc5ccc(F)c(F)c5)c(=O)c34)cc2)cn1 [Example 381, 5-(4-(5-aminopyrazin-2-yl)benzylamino)-3-(3,4-difluorobenzyl)pyrido[4,3-d] pyrimidin-4(3H)-one]
< 100 nM | < 1000 nM |  |  |  | Cc1[nH]c(/C=C2\C(=O)Nc3cc(/C=C/CNc4ncccc4C(=O)NCc4ccc(F)c(F)c4)ccc32)c(C)c1C(=O)N1CCOCC1 [Example 15.18, N-(3,4-Difluoro-benzyl)-2-((E)-3-{3-[1-[3,5-dimethyl-4-(morpholine-4-carbonyl)-1H-pyrrol-2-yl]-meth-(Z)-ylidene]-2-oxo-2,3-dihydro-1H-indol-6-yl}-allylamino)-nicotinamide]
< 100 nM | 1000 to 10000 nM |  |  |  | CC(C)Oc1cc(CNc2ncccc2C(=O)NCc2ccc(F)c(F)c2)cc(-c2c[nH]c3ncncc23)c1 [Example 5.8, N-(3,4-difluorobenzyl)-2-{[3-(propan-2-yloxy)-5-(7H-pyrrolo[2,3-d]pyrimidin-5-yl)benzyl]amino}pyridine-3-carboxamide]
 |  | < 100 nM | 1000 to 10000 nM |  | C[C@H](NC(=O)c1cc(C#N)cnc1NCc1ccc(-c2cnc(N)c(C(=O)NCC(O)CO)c2)cc1)c1ccc(F)cc1 (some centres unmarked) [Example 206]
1000 to 5000 nM | > 10000 nM |  |  |  | CC(C)Oc1cc(CNc2ncccc2C(=O)Nc2c(F)cccc2F)cc(-c2c[nH]c3ncc(C(=O)NC4CC4)cc23)c1 [Example 4.1.12, N-cyclopropyl-3-{3-[({3-[(2,6-difluorophenyl)carbamoyl]pyridin-2-yl}amino)methyl]-5-(propan-2-yloxy)phenyl}-1H-pyrrolo[2,3-b] pyridine-5-carboxamide]
 |  | 100 to 1000 nM | > 10000 nM |  | Nc1n[nH]c2ncc(-c3ccc(CNc4ncc(C(F)(F)F)cc4C(=O)N[C@H](CO)c4ccc(F)cc4)cc3)cc12 [Example 266]
100 to 1000 nM | 1000 to 10000 nM |  |  |  | C#CCNC(=O)c1cccnc1NCc1cc(OC(C)C)cc(-c2c[nH]c3ncc(C(=O)NC4CC4)cc23)c1 [Example 4.1.16, N-cyclopropyl-3-[3-(propan-2-yloxy)-5-({[3-(prop-2-yn-1-ylcarbamoyl)pyridin-2-yl]amino}methyl)phenyl]-1H-pyrrolo[2,3-b] pyridine-5-carboxamide]
 |  | < 100 nM | < 1000 nM |  | C[C@H](NC(=O)c1cccnc1NCc1ncc(-c2ccc3ncc4ncn(C)c4c3c2)s1)c1ccc(F)c(F)c1 [Example 385, N-[(S)-1-(3,4-Difluoro-phenyl)-ethyl]-2-{[5-(1-methyl-1H-imidazo[4,5-c]quinolin-8-yl)-thiazol-2-ylmethyl]-amino}-nicotinamide]
 |  | < 100 nM | < 1000 nM |  | C[C@H](NC(=O)c1cc(C#N)cnc1NCc1ccc(-c2cnc(N)c(CCCCN3CCOCC3)n2)cc1)c1ccc(F)cc1 [Example 89, 2-{4-[5-Amino-6-(4-morpholin-4-yl-butyl)-pyrazin-2-yl]-benzyl-amino}-5-cyano-N-[(S)-1-(4-fluoro-phenyl)-ethyl]-nicotinamide]
< 100 nM |  |  |  | < 1000 nM | C[C@H](NC(=O)c1cccnc1NCc1ccc(-c2ccc3ncnc(N)c3c2)s1)c1ccc(F)c(F)c1 [Example 3.41, (S)-2-(((5-(4-aminoquinazolin-6-yl)thiophen-2-yl)methyl)amino)-N-(1-(3,4-difluorophenyl)ethyl) nicotinamide (TFA salt)]
> 5000 nM | > 10000 nM |  |  |  | Nc1ncnc2ccc(-c3ccc(CNc4ncccc4C(=O)NCc4cc(F)ccc4C(F)(F)F)s3)cc12 [Example 3.12, 2-({[5-(4-aminoquinazolin-6-yl)thiophen-2-yl]methyl}amino)-N-[5-fluoro-2-(trifluoromethyl)benzyl]pyridine-3-carboxamide (TFA salt)]
< 100 nM | < 1000 nM |  |  |  | N#Cc1cnc(NCc2ccc(-c3cnc(N)cn3)cc2)c(C(=O)Nc2ccc(F)cc2)n1 [Example 34, 3-(4-(5-aminopyrazin-2-yl)benzylamino)-6-cyano-N-(4-fluorophenyl) pyrazine-2-carboxamide]
 |  | < 100 nM | < 1000 nM |  | COc1cc(-c2ccc(CNc3ncc(C#N)cc3C(=O)N[C@@H](C)c3ccc(F)cc3)cc2)cnc1N [Example 133, (S)-2-(4-(6-amino-5-methoxypyridin-3-yl)benzylamino)-5-cyano-N-(1-(4-fluorophenyl)ethyl)nicotinamide]
100 to 1000 nM |  |  |  | 1000 to 10000 nM | C[C@H](NC(=O)c1cccnc1NCc1ccc(-c2ccc3ncc(N)nc3c2)s1)c1ccc(F)c(F)c1 [Example 4.30, (S)-2-(((5-(3-aminoquinoxalin-6-yl)thiophen-2-yl)methyl)amino)-N-(1-(3,4-difluorophenyl)ethyl) nicotinamide]
< 100 nM | > 10000 nM |  |  |  | Nc1ncnc2ccc(-c3nc(CNc4ncccc4C(=O)NCc4ccc(F)c(F)c4)cs3)cc12 [Ex. 6.8, 2-({[2-(4-aminoquinazolin-6-yl)-1,3-thiazol-4-yl]methyl}amino)-N-(3,4-difluoro-benzyl) pyridine-3-carboxamide]
 |  | < 100 nM | < 1000 nM |  | Cn1cc(-c2ccc(CNc3ncc(C(F)(F)F)cc3C(=O)NCc3ccc(F)c(F)c3)cc2)c2c(N)ncnc21 [Example 331, 2-(4-(4-amino-7-methyl-7H-pyrrolo[2,3-d]pyrimidin-5-yl)-benzylamino)-N-(3,4-difluorobenzyl)-5-(trifluoromethyl)nicotinamide]
 |  | < 100 nM | < 1000 nM |  | C[C@H](NC(=O)c1cc(C#N)cnc1NCc1ccc(-c2ccc(N)nc2)cc1)c1ccc(F)cc1 [Example 106, (S)-2-(4-(6-aminopyridin-3-yl)benzylamino)-5-cyano-N-(1-(4-fluorophenyl)ethyl) nicotinamide]
 |  | < 100 nM | 1000 to 10000 nM |  | COc1cc(F)ccc1NC(=O)c1cc(C(F)(F)F)cnc1NCc1ccc(-c2cnc3[nH]nc(N)c3c2)cc1 [Example 261, 2-(4-(3-amino-1H-pyrazolo [3,4-b]pyridin-5-yl)benzylamino)-N-(4-fluoro-2-methoxyphenyl)-5-(trifluoromethyl)nicotinamide]
 |  | < 100 nM | 1000 to 10000 nM |  | C[C@H](NC(=O)c1nc(C#N)cnc1NCc1ccc(-c2cnc(N)c(-c3cccc(O)c3)n2)cc1)c1ccc(F)c(F)c1 [Example 235, 3-{4-[5-Amino-6-(3-hydroxy-phenyl)-pyrazin-2-yl]-benzylamino}-6-cyano-pyrazine-2-carboxylic acid [(S)-1-(3,4-difluoro-phenyl)-ethyl]-amide]
